In paper PMC5909415 (ACS nano, 2015):

Legend:
PC3 = assay: Cell viability assay; type: cell-based; conditions: Homo sapiens, PC-3, 72 h, read-out: IC50 of avasimin (containing avasimibe)
[1] = Tissue distribution of avasimibe in PC3 tumor-bearing mice; type: in vivo; conditions: oral avasimibe 15 mg/kg, 2 hr
HSA = HSA (Homo sapiens, UniProt P02768); assay: Interaction between avasimibe and HSA; type: binding; conditions: avasimibe:HSA molar ratio 16:1, warfarin:HSA 10:1, warfarin fluorescence
[2] = Blood bioavailability of avasimibe; type: in vivo, mice; conditions: nude, mouse, whole blood, po
PC3 tumors = assay: Anti-tumor effect, PC3 tumor xenograft; conditions: oral avasimibe 15 mg/kg daily by gavage, versus PBS
cancer and normal cells = assay: Cell viability assay; type: cell-based, human; conditions: 72 h

Chain of HSA (P02768 25-609): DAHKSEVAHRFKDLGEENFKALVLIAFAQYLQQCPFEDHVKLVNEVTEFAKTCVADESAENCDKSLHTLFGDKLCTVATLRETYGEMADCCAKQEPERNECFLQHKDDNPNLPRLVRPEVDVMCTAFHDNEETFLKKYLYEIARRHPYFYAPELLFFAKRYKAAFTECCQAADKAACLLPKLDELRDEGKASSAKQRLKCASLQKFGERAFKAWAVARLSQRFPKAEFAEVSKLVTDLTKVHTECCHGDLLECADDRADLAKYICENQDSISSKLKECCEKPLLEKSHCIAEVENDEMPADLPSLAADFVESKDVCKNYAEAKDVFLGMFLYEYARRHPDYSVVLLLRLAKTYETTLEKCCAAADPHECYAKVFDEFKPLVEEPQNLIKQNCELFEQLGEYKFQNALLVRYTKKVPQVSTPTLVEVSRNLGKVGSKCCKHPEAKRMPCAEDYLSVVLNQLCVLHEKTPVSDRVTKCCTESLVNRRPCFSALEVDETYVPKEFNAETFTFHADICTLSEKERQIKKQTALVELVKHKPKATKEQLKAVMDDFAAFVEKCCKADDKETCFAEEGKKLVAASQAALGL

IC50 (PC3) [µM]	avasimibe in the tumor tissue [1]	replacement of warfarin at the primary binding site (site I) of HSA (HSA)	AUC ([2]; 15 mg/kg) [ng·h/mL]	AUC ([2]; 100 mg/kg) [ng·h/mL]	Compound	distribution of avasimibe to liver [1]	excretion of avasimibe through feces [1]	anti-tumor effect in terms of tumor volume (PC3 tumors)	effect on viability of cancer and normal cells (cancer and normal cells)
8.5	not detectable	complete replacement of warfarin	14900	49900	CC(C)c1cc(C(C)C)c(CC(=O)NS(=O)(=O)Oc2c(C(C)C)cccc2C(C)C)c(C(C)C)c1 [avasimibe]	most orally administered avasimibe was found in the liver tissue	considerable amount of avasimibe was excreted through the feces	did not exhibit anti-tumor effect	
					N.N.[Cl][Pt][Cl] [cisplatin]				non-selective cytotoxic effects
					Nc1ccn([C@@H]2O[C@H](CO)[C@@H](O)C2(F)F)c(=O)n1 [gemcitabine]				non-selective cytotoxic effects
